Assay results as given in US11771738B2 (Zoetis Services LLC, priority 2018, dated 2023).
Where two headings read alike, the source gives them in different places.

What was measured:
Format in all cases: cell-based
[1] = tested on: microfilariae of Dirofilaria immitis; assay: Dirofilaria immitis, Microfilaria (DiMf) In Vitro Assay; conditions: Dirofilaria immitis, 72 h, read-out: DiMf MED, Minimum Effective Dose, D. immitis microfilariae motility, in vitro
[2] = tested on: D. immitis L4 larvae; assay: Dirofilaria immitis, L4 Stage (DiL4) In Vitro Assay; conditions: for minimal effective concentration: Dirofilaria immitis, 72 h, read-out: DiL4 MED, Minimum Effective Dose, D. immitis L4 larvae motility, in vitro; for DiMf/DiL4: larval stage selectivity, ratio of DiMf MED to DiL4 MED
[3] = tested on: third stage larvae of Haemonchus contortus; assay: Haemonchus contortus, Larvae Stage 3 (HcL3) In Vitro Assay; conditions: Haemonchus contortus, 96 h
[4] = read-out: HcL3 MED (symbol after Ex#), approximately 96 hours incubation, multiple-resistant field isolate
[5] = read-out: HcL3 MED, Minimum Effective Dose, H. contortus third stage larvae, approximately 96 hours
[6] = read-out: HcL3 MED, approximately 96 hours incubation, multiple-resistant field isolate
[7] = read-out: HcL3 MED, Haemonchus contortus third stage larvae in vitro, class mark appended to the Ex # in Table 3

| SMILES | minimal effective concentration [1] | minimal effective concentration [2] | DiMf/DiL4 [2] | minimal effective concentration [3, 4] | minimal effective concentration [3, 5] | minimal effective concentration [3, 6] | minimal effective concentration [3, 7] |
| --- | --- | --- | --- | --- | --- | --- | --- |
| CC(C)C[C@H]1C(=O)O[C@H](Cc2ccc(Cc3ccccc3)cc2)C(=O)N(C)[C@@H](CC(C)C)C(=O)O[C@H](C)C(=O)N(C)[C@@H](CC(C)C)C(=O)O[C@H](Cc2ccccc2)C(=O)N(C)[C@@H](CC(C)C)C(=O)O[C@H](C)C(=O)N1C [Example 2-1, (3S,6R,9S,12R,15S,18R,21S,24R)-6-benzyl-18-(4-benzylbenzyl)-3,9,15,21-tetraisobutyl-4,10,12,16,22,24-hexamethyl-1,7,13,19-tetraoxa-4,10,16,22-tetraazacyclotetracosan-2,5,8,11,14,17,20,23-octaone] | 0.02 µM | 0.001 µM | 20 | < 1 µM | 0.65 µM | ≤ 1 µM |  |
| CC(C)C[C@H]1C(=O)O[C@H](Cc2ccc(Cc3ccc(F)cc3)cc2)C(=O)N(C)[C@@H](CC(C)C)C(=O)O[C@H](C)C(=O)N(C)[C@@H](CC(C)C)C(=O)O[C@H](Cc2ccccc2)C(=O)N(C)[C@@H](CC(C)C)C(=O)O[C@H](C)C(=O)N1C [Example 2-4, (3S,6R,9S,12R,15S,18R,21S,24R)-6-benzyl-18-(4-(4-fluorobenzyl)benzyl)-3,9,15,21-tetraisobutyl-4,10,12,16,22,24-hexamethyl-1,7,13,19-tetraoxa-4,10,16,22-tetraazacyclotetracosan-2,5,8,11,14,17,20,23-octaone] | 0.05 µM | 0.0007 µM | 71.4 | 1 to 3.3 µM | 3.3 µM |  |  |
| CCN(CC)C(c1ccc(C[C@H]2OC(=O)[C@H](CC(C)C)N(C)C(=O)[C@@H](C)OC(=O)[C@H](CC(C)C)N(C)C(=O)[C@@H](Cc3ccccc3)OC(=O)[C@H](CC(C)C)N(C)C(=O)[C@@H](C)OC(=O)[C@H](CC(C)C)N(C)C2=O)cc1)c1ccc(F)c(F)c1 (stereo partly drawn) [Example 2-36, (3S,6R,9S,12R,15S,18R,21S,24R)-6-benzyl-18-(4-((diethylamino)(3,4-difluorophenyl)methyl)benzyl)-3,9,15,21-tetraisobutyl-4,10,12,16,22,24-hexamethyl-1,7,13,19-tetraoxa-4,10,16,22-tetraazacyclotetracosan-2,5,8,11,14,17,20,23-octaone] | 0.03 µM | 0.0002 µM | 150 |  | 1 µM |  |  |
| COC(c1ccc(C[C@H]2OC(=O)[C@H](CC(C)C)N(C)C(=O)[C@@H](C)OC(=O)[C@H](CC(C)C)N(C)C(=O)[C@@H](Cc3ccccc3)OC(=O)[C@H](CC(C)C)N(C)C(=O)[C@@H](C)OC(=O)[C@H](CC(C)C)N(C)C2=O)cc1)c1ccc(F)c(F)c1 (stereo partly drawn) [Example 2-37, (3S,6R,9S,12R,15S,18R,21S,24R)-6-benzyl-18-(4-((3,4-difluorophenyl)(methoxy)methyl)benzyl)-3,9,15,21-tetraisobutyl-4,10,12,16,22,24-hexamethyl-1,7,13,19-tetraoxa-4,10,16,22-tetraazacyclotetracosan-2,5,8,11,14,17,20,23-octaone] | 0.02 µM | 0.001 µM | 20 | 1 to 3.3 µM | 3.3 µM |  |  |
| CCOC(c1ccc(C[C@H]2OC(=O)[C@H](CC(C)C)N(C)C(=O)[C@@H](C)OC(=O)[C@H](CC(C)C)N(C)C(=O)[C@@H](Cc3ccccc3)OC(=O)[C@H](CC(C)C)N(C)C(=O)[C@@H](C)OC(=O)[C@H](CC(C)C)N(C)C2=O)cc1)c1ccc(F)c(F)c1 (stereo partly drawn) [Example 2-38, (3S,6R,9S,12R,15S,18R,21S,24R)-6-benzyl-18-(4-((3,4-difluorophenyl)(ethoxy)methyl)benzyl)-3,9,15,21-tetraisobutyl-4,10,12,16,22,24-hexamethyl-1,7,13,19-tetraoxa-4,10,16,22-tetraazacyclotetracosan-2,5,8,11,14,17,20,23-octaone] | 0.03 µM | 0.0006 µM | 50 | < 1 µM | 0.5 µM | ≤ 1 µM |  |
| CC(C)C[C@H]1C(=O)O[C@H](Cc2ccc([C@@H](c3ccc(OC(F)(F)F)cc3)N3CCOCC3)cc2)C(=O)N(C)[C@@H](CC(C)C)C(=O)O[C@H](C)C(=O)N(C)[C@@H](CC(C)C)C(=O)O[C@H](Cc2ccccc2)C(=O)N(C)[C@@H](CC(C)C)C(=O)O[C@@H](C)C(=O)N1C [Example 2-42, (3S,6R,9S,12R,15S,18R,21S,24S)-6-benzyl-3,9,15,21-tetraisobutyl-4,10,12,16,22,24-hexamethyl-18-[[4-[(S)-morpholino-[4-(trifluoromethoxy)phenyl]-methyl]phenyl]methyl]-1,7,13,19-tetraoxa-4,10,16,22-tetrazacyclotetracosane-2,5,8,11,14,17,20,23-octaone] | 0.3 µM | 0.0003 µM | 1000 |  | > 10 µM |  |  |
| CC(C)C[C@H]1C(=O)O[C@H](Cc2ccc(Cc3cccs3)cc2)C(=O)N(C)[C@@H](CC(C)C)C(=O)O[C@H](C)C(=O)N(C)[C@@H](CC(C)C)C(=O)O[C@H](Cc2ccc(Cc3cccs3)cc2)C(=O)N(C)[C@@H](CC(C)C)C(=O)O[C@H](C)C(=O)N1C [Example 3-4, (3S,6R,9S,12R,15S,18R,21S,24R)-3,9,15,21-tetraisobutyl-4,6,10,16,18,22-hexamethyl-12,24-bis(4-(thiophen-2-ylmethyl)benzyl)-1,7,13,19-tetraoxa-4,10,16,22-tetraazacyclotetracosan-2,5,8,11,14,17,20,23-octaone] | 0.02 µM | 0.0001 µM | 200 |  | 0.5 µM | ≤ 1 µM | < 1 µM |
| CC(C)C[C@H]1C(=O)O[C@H](Cc2ccc(Cc3ccco3)cc2)C(=O)N(C)[C@@H](CC(C)C)C(=O)O[C@H](C)C(=O)N(C)[C@@H](CC(C)C)C(=O)O[C@H](Cc2ccc(Cc3ccco3)cc2)C(=O)N(C)[C@@H](CC(C)C)C(=O)O[C@H](C)C(=O)N1C [Example 3-8, (3S,6R,9S,12R,15S,18R,21S,24R)-6,18-bis(4-(furan-2-ylmethyl)benzyl)-3,9,15,21-tetraisobutyl-4,10,12,16,22,24-hexamethyl-1,7,13,19-tetraoxa-4,10,16,22-tetraazacyclotetracosan-2,5,8,11,14,17,20,23-octaone] | 0.01 µM | 0.0003 µM | 33.3 |  | 1 µM | ≤ 1 µM | < 1 µM |
| CC(C)C[C@H]1C(=O)O[C@H](Cc2ccc(Cc3cncs3)cc2)C(=O)N(C)[C@@H](CC(C)C)C(=O)O[C@H](C)C(=O)N(C)[C@@H](CC(C)C)C(=O)O[C@H](Cc2ccc(Cc3cncs3)cc2)C(=O)N(C)[C@@H](CC(C)C)C(=O)O[C@H](C)C(=O)N1C [Example 3-12, (3S,6R,9S,12R,15S,18R,21S,24R)-3,9,15,21-tetraisobutyl-4,6,10,16,18,22-hexamethyl-12,24-bis(4-(thiazol-5-ylmethyl)benzyl)-1,7,13,19-tetraoxa-4,10,16,22-tetraazacyclotetracosan-2,5,8,11,14,17,20,23-octaone] | 0.0007 µM | 0.001 µM | 0.7 |  | 3.3 µM |  | 1 to 3.3 µM |
| CC(C)C[C@H]1C(=O)O[C@H](Cc2ccc(Cc3nccs3)cc2)C(=O)N(C)[C@@H](CC(C)C)C(=O)O[C@H](C)C(=O)N(C)[C@@H](CC(C)C)C(=O)O[C@H](Cc2ccc(Cc3nccs3)cc2)C(=O)N(C)[C@@H](CC(C)C)C(=O)O[C@H](C)C(=O)N1C [Example 3-17, (3S,6R,9S,12R,15S,18R,21S,24R)-3,9,15,21-tetraisobutyl-4,6,10,16,18,22-hexamethyl-12,24-bis(4-(thiazol-2-ylmethyl)benzyl)-1,7,13,19-tetraoxa-4,10,16,22-tetraazacyclotetracosan-2,5,8,11,14,17,20,23-octaone] | 0.0003 µM | 0.0003 µM | 1 |  | 0.5 µM | ≤ 1 µM | < 1 µM |
| CC(C)C[C@H]1C(=O)O[C@H](Cc2ccc(Cc3ncco3)cc2)C(=O)N(C)[C@@H](CC(C)C)C(=O)O[C@H](C)C(=O)N(C)[C@@H](CC(C)C)C(=O)O[C@H](Cc2ccc(Cc3ncco3)cc2)C(=O)N(C)[C@@H](CC(C)C)C(=O)O[C@H](C)C(=O)N1C [Example 3-18, (3S,6R,9S,12R,15S,18R,21S,24R)-3,9,15,21-tetraisobutyl-4,6,10,16,18,22-hexamethyl-12,24-bis(4-(oxazol-2-ylmethyl)benzyl)-1,7,13,19-tetraoxa-4,10,16,22-tetraazacyclotetracosan-2,5,8,11,14,17,20,23-octaone] | 0.0002 µM | 0.0001 µM | 2 |  | 1 µM | ≤ 1 µM | < 1 µM |
